Source: paper PMC8899577, “Targeting the anti-apoptotic Bcl-2 family proteins: machine learning virtual screening and biological evaluation of new small molecules” (Theranostics, 2022)

Key:
Mcl-1 = Mcl-1 (Homo sapiens, UniProt Q07820); test: SPR binding to immobilized Mcl-1; details: 25 °C, 2-site fit, highest affinity site
Procedure: FastStep experiments were performed with a SensiQ Pioneer apparatus. Bcl-2 immobilization on COOH5 sensorchips was carried out essentially as previously reported, [40]. All the experiments were carried out at 25 °C in degassed HEPES 20 mM, pH 7.4, NaCl 150 mM, 0.005% surfactant P20 + 2% DMSO (HBSP2%D). […] Each sensorgram is the average of at least three experiments. The decrease in Response Units (RU) after 165 s indicates analyte dissociation from the immobilized Bcl-2 upon HSBP2%D buffer injection. Control SPR experiments were carried out measuring sensorgrams on Bcl-xL and Mcl-1 (ligands) immobilized on COOH5 sensorchips as previously reported at 25 °C in degassed HBSP2%D buffer. […] Each sensorgram is the average of at least three experiments. The decrease in RU after 180 s indicates analyte dissociation from the immobilized ligands upon HSBP2%D buffer injection. Kinetic evaluation of the sensorgrams was carried out using the Qdat 4.0 program; best fittings were obtained with 2 sites and indicated in red (reported KD values refer to dissociation constants of the highest affinity site).
Figure 3 SPR analysis of the interaction between IS20 or IS21 and Bcl-xL and Mcl-1 proteins. SPR experiments were carried out measuring sensorgrams on Bcl-xL and Mcl-1 (ligands) immobilized on COOH5 sensorchips at 25 °C in degassed HBSP2%D buffer. IS20 and IS21 (analytes) were injected at a flow rate = 30 μL/min, at the following concentrations: 0.3 μM (only for Mcl-1 experiments); 1 μM; 3 μM; 10 μM; 30 μM. Each sensorgram is the average of at least three experiments. The decrease in RU (Response Units) after 180 s indicates analyte dissociation from the immobilized ligands upon HSBP2%D buffer injection. The fitted KD values for Bcl-xL are the following. IS20: 0.42 ± 0.09 μM and IS21: 0.51 ± 0.17 μM. The fitted KD values for Mcl-1are the following. IS20: 3.9 ± 0.30 μM and IS21: 1.16 ± 0.14 μM;

Sbcl2 melanoma cells = test: Cell viability by MTT, Sbcl2; assay type: cell-based; details: Homo sapiens, 72 h
Procedure: The effect of compounds on cell viability was performed by measuring 3-[4,5-dimethylthiazol-2-yl]-2,5-diphenyltetrazolium bromide inner salt (MTT, Sigma-Aldrich) dye absorbance (solid tumor cells) or by quantization of ATP present in metabolically active cells using CellTiter-Glo® Luminescent (Promega, Fitchburg, Wisconsin, USA) (hematologic cells) following manifacturer's protocol. To evaluate the cell colony-forming ability, cell suspension from different samples was seeded into 60-mm Petri dishes. After 10 days, colonies were stained with 2% methylene blue in 95% ethanol and counted (1 colony > 50 cells). The surviving fractions were calculated as the ratio of absolute survival of the treated sample/survival of DMSO-treated control sample.
Figure 1 Cytotoxic screening of putative inhibitors of Bcl-2 anti-apoptotic proteins. (A) Flow cytometric quantification of propidium iodide exclusion assay in HL60 cells treated with the 49 putative Bcl-2 family inhibitors (50 μM, 72 h). (B) Analysis of cell viability by CellTiterGlo assay in HL60 cells treated for 24 h with concentrations ranging from 5 to 50 μM of the indicated compounds. (C-D) Analysis of cell viability by MTT assay in (C) M14 and (D) Sbcl2 melanoma cell lines treated for 72 h with concentrations ranging from 5 to 50 μM of the indicated compounds. […]

H1299 cells = test: Western blot of PARP1 cleavage, H1299; assay type: cell-based, Human; details: 72 h
Procedure: Western blot analyses of total protein extracts were performed as previously described. Immunodetection was performed using antibodies directed to poly (ADP-ribose) polymerase (PARP; BD Biosciences San Diego, CA, USA), LC3B (Cell Signaling Technology, Danvers, MA), HSP72/73 (Calbiochem, EMD Biosciences, La Jolla, CA), Bcl-2 (SC-509, Santa Cruz Biotechnology Inc, Dallas, TX, USA), Bcl-xL (SC-271121, Santa Cruz Biotechnology Inc), Mcl-1 (SC-12756, Santa Cruz Biotechnology Inc) α-tubulin (Santa Cruz Biotechnology Inc) actin (Sigma-Aldrich, St. Louis, Missouri, USA). Anti-rabbit or anti-mouse immunoglobulin G-horseradish peroxidase-conjugated antibodies (Amersham Biosciences, Freiburg, Germany) were used as secondary antibody. Images were acquired by Image Lab Software (Bio-Rad, Hercules, CA, USA), using a ChemiDoc System instrument (Bio-Rad). […]
Figure 5 Analysis of apoptosis induction by IS20 and IS21 in leukemia, melanoma and NSCLC cells. […] (G) Flow cytometric quantification of cells in the subG1 peak of cell cycle distribution by propidium iodide staining in HL60 cell line treated with IS20 or IS21 (20 μM for 24 h) and in M14, H1299 and MDA-MB-231 cell lines treated with IS20 or IS21 (20 μM for 72 h). Data are reported as mean ± SD of three independent experiments. p-values were calculated between control (Ctrl) and treated cells, * p < 0.05. […]

Mcl-1, sequence (Q07820 whole entry): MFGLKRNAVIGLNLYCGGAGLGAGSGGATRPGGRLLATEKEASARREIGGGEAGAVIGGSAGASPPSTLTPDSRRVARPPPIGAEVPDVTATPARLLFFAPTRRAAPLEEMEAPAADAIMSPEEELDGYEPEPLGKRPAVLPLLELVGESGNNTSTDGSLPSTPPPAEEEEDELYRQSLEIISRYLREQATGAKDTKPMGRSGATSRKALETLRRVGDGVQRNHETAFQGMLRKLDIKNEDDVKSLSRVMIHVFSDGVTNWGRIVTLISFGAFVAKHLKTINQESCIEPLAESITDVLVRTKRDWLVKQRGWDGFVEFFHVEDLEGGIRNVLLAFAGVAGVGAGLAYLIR

Row | SMILES | Kd (Mcl-1) [µM] | IC50 (Sbcl2 melanoma cells) [µM] | PARP1 cleavage, H1299 (H1299 cells)
1 | CCCCOc1ccc(C2/C(=C(\O)c3ccc4c(c3)CC(C)O4)C(=O)C(=O)N2c2nnc(SCc3ccc(Cl)cc3)s2)cc1OCC (stereo not drawn) [IS20] | 3.9 ± 0.3 | 21 | cleavage of PARP1
2 | CCCCCOc1ccc(C2/C(=C(\O)c3ccc4c(c3)CC(C)O4)C(=O)C(=O)N2c2nnc(SCc3ccc(Cl)cc3)s2)cc1OCC (stereo not drawn) [IS21] | 1.16 ± 0.14 | 19.8 | cleavage of PARP1
